Experiment: Cutting force during the shaving of human hair after 24 hours of exposure time (universal test apparatus with cutting force adapter)
Conditions: products A-D in artificial sweat solution, five hair fibers cut, 90° cutting angle
Protocol: The measurements are thereby carried out on a universal test apparatus with cutting force adapter with four friction bearings and recorded by means of TestXpert software.
Five hair fibers were cut for the measurement.
Due to the influence of the cross section of the hair fiber, a preliminary grouping of the hair fibers to be cut is indispensable, which ensures that the products to be compared were carried out on hair fibers with the same cross section so that relative results are obtained.
Five hair fibers fixed on one side are cut with the aid of a commercially available blade (single-blade razor with replaceable blade) at a constant speed. The blade is thereby clamped in an adapter specially produced for this purpose, which ensures a guidance of the blade with the aid of four friction bearings. The determination of the cutting force is carried out by maximum force detection. At the same time, the friction force of the friction bearings is recorded during each measurement.
Measurement parameters: Measurement speed: 100 mm/min • Cutting angle: 90° • Blade grind: approx. 12°
The tested products A-D (see FIG. 1) comprise an artificial sweat solution composed of […]
In a further comparative test, the cutting force on human hair was measured after 24 hours of exposure time of three preparations (FIG. 2). […]

Substance: Aluminum chlorohydrate [aluminum chlorohydrates]
- cutting force during the shaving of human hair (FIG. 1): reduction of the cutting force
- cutting force during the shaving of human hair (FIG. 1, listed as ACH): cutting force reduction
